Source: US8138183B2, “Morpholino pyrimidine derivatives used in diseases linked to mTOR kinase and/or PI3K” (AstraZeneca AB, priority 2007, dated 2012)

Target: recombinant mTOR (Homo sapiens, UniProt P42345)
Test: In Vitro mTOR Kinase Assay, Test (a)(i) (AlphaScreen)
Type: biochemical
Details: read-out: IC50 versus mTOR kinase
Description: (a)(i) In Vitro mTOR Kinase Assay
The assay used AlphaScreen technology (Gray et al., Analytical Biochemistry, 2003, 313: 234-245) to determine the ability of test compounds to inhibit phosphorylation by recombinant mTOR.
The HEK293 FLAG-tagged mTOR (1362-2549) stable cell line was routinely maintained at 37° C. with 5% CO2 up to a confluency of 70-90% in Dulbecco's modified Eagle's growth medium (DMEM; Invitrogen Limited, Paisley, UK Catalogue No. 41966-029) containing 10% heat-inactivated foetal calf serum (FCS; Sigma, Poole, Dorset, UK, Catalogue No. F0392), 1% L-glutamine (Gibco, Catalogue No. 25030-024) and 2 mg/ml Geneticin (G418 sulfate; Invitrogen Limited, UK Catalogue No. 10131-027). […]
Each reaction was stopped by the addition of 10 μl of a mixture of EDTA (50 mM), bovine serum albumin (BSA; 0.5 mg/mL) and Tris-HCl pH7.4 buffer (50 mM) containing p70 S6 Kinase (T389) 1A5 Monoclonal Antibody (Cell Signalling Technology, Catalogue No. 9206B) and AlphaScreen Streptavidin donor and Protein A acceptor beads (200 ng; Perkin Elmer, Catalogue No. 6760002B and 6760137R respectively) were added and the assay plates were left for about 20 hours at room temperature in the dark. The resultant signals arising from laser light excitation at 680 nm were read using a Packard Envision instrument. […]
mTOR enzyme inhibition for a given test compound was expressed as an IC50 value.

recombinant mTOR, sequence (P42345 1362-2549): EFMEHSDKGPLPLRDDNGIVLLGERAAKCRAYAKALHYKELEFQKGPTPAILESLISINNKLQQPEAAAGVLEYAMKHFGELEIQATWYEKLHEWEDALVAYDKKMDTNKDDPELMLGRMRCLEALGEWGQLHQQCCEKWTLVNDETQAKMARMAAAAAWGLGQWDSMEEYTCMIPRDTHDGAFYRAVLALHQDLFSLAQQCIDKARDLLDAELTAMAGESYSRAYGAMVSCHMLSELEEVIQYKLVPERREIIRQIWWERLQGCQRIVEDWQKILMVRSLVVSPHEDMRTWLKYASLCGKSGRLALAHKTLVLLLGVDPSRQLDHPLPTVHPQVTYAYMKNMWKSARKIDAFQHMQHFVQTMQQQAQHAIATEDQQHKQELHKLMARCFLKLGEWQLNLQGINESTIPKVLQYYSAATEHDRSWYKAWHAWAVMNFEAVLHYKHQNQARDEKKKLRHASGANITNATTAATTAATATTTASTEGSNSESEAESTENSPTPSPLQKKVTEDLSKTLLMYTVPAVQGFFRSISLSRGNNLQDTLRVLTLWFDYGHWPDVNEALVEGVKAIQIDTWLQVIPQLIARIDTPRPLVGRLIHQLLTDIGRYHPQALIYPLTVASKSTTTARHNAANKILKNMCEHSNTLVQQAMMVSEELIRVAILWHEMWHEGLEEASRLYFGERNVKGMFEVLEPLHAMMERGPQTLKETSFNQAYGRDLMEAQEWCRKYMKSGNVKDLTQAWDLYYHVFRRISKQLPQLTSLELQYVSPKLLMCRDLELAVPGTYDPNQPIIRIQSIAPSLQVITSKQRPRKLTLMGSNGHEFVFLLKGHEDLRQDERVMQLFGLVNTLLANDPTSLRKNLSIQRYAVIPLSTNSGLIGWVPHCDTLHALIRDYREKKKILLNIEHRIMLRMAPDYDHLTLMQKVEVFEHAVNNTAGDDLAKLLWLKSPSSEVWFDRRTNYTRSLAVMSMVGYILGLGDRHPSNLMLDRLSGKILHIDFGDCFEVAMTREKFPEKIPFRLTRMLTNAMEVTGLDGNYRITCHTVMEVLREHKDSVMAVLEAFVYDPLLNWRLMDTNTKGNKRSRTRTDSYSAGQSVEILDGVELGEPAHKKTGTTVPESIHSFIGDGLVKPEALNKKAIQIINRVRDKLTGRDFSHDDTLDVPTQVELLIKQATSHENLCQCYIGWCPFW

IC50: 0.55 µM
SMILES: C[C@H]1COCCN1c1cc(CS(C)(=O)=O)nc(-c2ccc(NC(=S)Nc3ccccc3)cc2)n1 [Example 1b, 1-[4-[4-[(3S)-3-methylmorpholin-4-yl]-6-(methylsulfonylmethyl)pyrimidin-2-yl]phenyl]-3-phenyl-thiourea]
